Experimental findings from ChEMBL document CHEMBL3593229, “Identification of a potent 5-phenyl-thiazol-2-ylamine-based inhibitor of FLT3 with activity against drug resistance-conferring point mutations” (Eur J Med Chem, 2015) are described below.

Structures are written as SMILES. Calls of active or inactive are those of the source. The calls are words filed in the database; no cut-off is given here.

One experiment has as its system MV4-11. Nature of the experiment: Antitumor activity against human MV4-11 cells xenografted in nude mouse assessed as tumor regression at 25 mg/kg, po qd administered on day 8 to 12 measured during 48 days post last dose. It counts as functional, organism-based.
Experiment [1] deals with Proto-oncogene tyrosine-protein kinase receptor Ret (Homo sapiens) (UniProt P07949). In words: Inhibition of human RET at 0.1 uM relative to control.
The target of experiment [2] is Tyrosine-protein kinase receptor TYRO3 (Homo sapiens) (UniProt Q06418). Nature of the experiment: Inhibition of human TYRO3 at 0.1 uM relative to control.
Experiment [3] addresses Receptor-type tyrosine-protein kinase FLT3 (Homo sapiens, UniProt P36888, F691L). In words: Inhibition of FLT3 ITD F691L mutant (unknown origin) phosphorylation expressed in HEK293T cells preincubated for 1 hr followed by FLT3 ligand addition for 5 mins by Western blot analysis. The format is cell-based, HEK-293T.
The test system of experiment [4] is Receptor-type tyrosine-protein kinase FLT3 (Homo sapiens), P36888 [F691L].
Sequence of Receptor-type tyrosine-protein kinase FLT3 (Homo sapiens), P36888 [F691L] (P36888 whole entry F691L): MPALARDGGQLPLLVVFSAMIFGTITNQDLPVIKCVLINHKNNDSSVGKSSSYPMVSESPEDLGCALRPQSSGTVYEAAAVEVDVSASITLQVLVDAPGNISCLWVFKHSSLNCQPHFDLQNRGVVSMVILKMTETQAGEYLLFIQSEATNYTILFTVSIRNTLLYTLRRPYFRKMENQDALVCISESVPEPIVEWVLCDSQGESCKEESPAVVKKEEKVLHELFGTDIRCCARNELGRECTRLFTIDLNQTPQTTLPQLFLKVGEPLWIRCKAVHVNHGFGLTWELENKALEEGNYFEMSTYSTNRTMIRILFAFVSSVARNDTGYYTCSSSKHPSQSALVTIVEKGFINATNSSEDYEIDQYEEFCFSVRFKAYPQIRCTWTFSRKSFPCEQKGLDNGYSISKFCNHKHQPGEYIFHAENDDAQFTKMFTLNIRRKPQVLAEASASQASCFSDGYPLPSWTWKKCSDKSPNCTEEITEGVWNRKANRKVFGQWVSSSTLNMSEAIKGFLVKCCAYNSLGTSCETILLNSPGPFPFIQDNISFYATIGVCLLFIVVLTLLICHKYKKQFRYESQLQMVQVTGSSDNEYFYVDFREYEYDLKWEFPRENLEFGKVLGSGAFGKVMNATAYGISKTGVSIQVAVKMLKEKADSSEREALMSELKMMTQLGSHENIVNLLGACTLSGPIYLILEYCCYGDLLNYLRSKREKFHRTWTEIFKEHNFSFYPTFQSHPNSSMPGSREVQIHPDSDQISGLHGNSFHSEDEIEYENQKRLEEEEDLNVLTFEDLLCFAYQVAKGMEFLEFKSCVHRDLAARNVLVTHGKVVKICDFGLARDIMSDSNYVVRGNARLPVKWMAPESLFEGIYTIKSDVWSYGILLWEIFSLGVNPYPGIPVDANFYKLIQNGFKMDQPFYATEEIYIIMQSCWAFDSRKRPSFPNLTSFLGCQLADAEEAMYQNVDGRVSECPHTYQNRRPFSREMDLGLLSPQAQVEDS

Sequence of Proto-oncogene tyrosine-protein kinase receptor Ret (Homo sapiens) (P07949 whole entry): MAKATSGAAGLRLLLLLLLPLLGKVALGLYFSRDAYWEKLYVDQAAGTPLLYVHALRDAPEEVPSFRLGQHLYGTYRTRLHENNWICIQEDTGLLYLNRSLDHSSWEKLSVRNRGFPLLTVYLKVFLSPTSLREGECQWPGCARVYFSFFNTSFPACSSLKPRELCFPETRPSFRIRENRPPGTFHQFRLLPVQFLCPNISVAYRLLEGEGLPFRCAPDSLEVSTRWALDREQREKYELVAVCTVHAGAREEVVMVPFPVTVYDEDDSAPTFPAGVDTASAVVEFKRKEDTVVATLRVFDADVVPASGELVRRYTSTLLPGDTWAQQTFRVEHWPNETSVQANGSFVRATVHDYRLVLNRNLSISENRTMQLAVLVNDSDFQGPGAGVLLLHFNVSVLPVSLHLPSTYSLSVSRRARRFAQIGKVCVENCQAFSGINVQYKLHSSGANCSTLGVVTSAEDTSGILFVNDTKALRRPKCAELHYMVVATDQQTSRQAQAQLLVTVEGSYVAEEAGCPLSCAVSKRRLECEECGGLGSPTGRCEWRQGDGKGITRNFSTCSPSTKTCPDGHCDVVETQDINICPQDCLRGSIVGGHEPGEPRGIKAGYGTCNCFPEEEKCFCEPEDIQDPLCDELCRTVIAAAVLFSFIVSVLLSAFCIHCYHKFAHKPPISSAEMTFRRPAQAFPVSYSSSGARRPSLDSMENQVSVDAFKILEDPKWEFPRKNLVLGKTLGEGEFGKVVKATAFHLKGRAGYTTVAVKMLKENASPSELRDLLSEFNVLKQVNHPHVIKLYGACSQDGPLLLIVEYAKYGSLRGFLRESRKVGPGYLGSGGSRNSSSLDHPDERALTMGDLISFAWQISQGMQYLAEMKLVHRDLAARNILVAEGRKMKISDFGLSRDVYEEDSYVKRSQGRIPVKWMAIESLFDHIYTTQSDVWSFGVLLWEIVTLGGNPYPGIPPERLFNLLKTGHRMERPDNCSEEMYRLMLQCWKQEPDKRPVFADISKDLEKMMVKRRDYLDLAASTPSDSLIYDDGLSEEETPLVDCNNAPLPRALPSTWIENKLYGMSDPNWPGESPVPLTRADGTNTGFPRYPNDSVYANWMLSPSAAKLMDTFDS
Sequence of Tyrosine-protein kinase receptor TYRO3 (Homo sapiens) (Q06418 whole entry): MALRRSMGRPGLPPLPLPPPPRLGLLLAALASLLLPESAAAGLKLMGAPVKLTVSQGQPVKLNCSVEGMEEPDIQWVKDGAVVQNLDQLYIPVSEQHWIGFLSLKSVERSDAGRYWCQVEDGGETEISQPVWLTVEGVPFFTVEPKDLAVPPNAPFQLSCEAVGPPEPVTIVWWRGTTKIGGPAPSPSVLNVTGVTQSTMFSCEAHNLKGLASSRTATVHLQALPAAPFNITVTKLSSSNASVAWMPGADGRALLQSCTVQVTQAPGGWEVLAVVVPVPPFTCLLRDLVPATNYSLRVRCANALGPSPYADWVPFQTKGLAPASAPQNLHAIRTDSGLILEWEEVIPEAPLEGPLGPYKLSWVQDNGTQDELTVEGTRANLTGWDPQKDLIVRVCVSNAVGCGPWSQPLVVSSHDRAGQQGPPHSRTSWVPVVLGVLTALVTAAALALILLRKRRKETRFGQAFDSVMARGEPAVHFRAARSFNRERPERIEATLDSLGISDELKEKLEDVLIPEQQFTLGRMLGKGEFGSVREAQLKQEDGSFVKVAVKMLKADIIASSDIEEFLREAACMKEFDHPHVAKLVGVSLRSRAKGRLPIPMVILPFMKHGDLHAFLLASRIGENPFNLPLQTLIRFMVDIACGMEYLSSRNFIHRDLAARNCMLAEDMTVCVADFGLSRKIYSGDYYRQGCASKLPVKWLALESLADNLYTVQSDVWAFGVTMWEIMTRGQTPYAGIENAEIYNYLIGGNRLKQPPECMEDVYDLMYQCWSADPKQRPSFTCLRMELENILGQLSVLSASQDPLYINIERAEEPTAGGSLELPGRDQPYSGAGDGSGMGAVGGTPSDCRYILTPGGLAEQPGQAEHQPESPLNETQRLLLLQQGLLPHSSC
Sequence of Receptor-type tyrosine-protein kinase FLT3 (P36888 27-993 F691L limits assumed): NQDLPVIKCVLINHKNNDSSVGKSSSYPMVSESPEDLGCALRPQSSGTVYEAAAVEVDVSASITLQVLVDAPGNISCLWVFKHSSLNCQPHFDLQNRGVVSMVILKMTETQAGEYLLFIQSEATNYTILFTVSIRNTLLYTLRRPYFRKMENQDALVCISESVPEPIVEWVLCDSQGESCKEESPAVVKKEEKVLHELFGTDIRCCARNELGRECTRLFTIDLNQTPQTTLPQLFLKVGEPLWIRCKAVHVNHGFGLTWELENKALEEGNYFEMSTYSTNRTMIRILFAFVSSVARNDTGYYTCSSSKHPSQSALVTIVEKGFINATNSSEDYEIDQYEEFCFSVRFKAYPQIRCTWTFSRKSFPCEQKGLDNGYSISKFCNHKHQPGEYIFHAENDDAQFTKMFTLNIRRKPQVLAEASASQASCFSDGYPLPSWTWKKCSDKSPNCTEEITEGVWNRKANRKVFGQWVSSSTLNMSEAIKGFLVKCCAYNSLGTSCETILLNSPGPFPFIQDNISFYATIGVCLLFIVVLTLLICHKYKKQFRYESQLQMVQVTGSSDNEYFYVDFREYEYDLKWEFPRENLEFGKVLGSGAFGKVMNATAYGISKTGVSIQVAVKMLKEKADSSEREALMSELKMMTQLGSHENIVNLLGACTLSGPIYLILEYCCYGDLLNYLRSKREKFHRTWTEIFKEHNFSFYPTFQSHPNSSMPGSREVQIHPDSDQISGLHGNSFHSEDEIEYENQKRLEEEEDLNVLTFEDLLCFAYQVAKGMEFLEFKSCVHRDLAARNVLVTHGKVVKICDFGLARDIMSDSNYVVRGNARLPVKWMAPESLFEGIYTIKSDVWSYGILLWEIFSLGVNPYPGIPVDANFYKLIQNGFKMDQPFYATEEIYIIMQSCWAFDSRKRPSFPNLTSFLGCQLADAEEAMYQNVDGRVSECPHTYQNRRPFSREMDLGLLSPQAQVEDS

Take `CCc1cc(NC(=O)Nc2ccc(-c3cnc(Nc4cc(N5CCN(CC)CC5)nc(C)n4)s3)cc2)no1`: the result in the experiment on MV4-11 was Active. Further, the figures for the inhibition in experiment [1] and in experiment [2] were 95% and 28%, respectively. For the same compound, the concentration for half-maximal inhibition (IC50) (as a rule, the point on the concentration scale where inhibition reaches its midpoint) in experiment [3] was found to be 0.01 µM. For the same compound, the GI50 (as a rule, the concentration at which growth is held to half of that of the control) in experiment [4] was 0.07 µM.
